Assay results published in patent US8969554B2, “6-acyl-1,2,4-triazine-3,5-dione derivative and herbicides” (Kumiai Chemical Industry Co., Ltd., priority 2010, dated 2015).

Legend:
Type in all cases: in vivo
Echinochloa oryzicola = assay: Herbicidal activity by paddy field soil treatment (Test Example 1); design: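 index 0 to 10 in 10% steps of herbicidal effect with 10 meaning complete death and 0 below 10%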; conditions: 1000 g of effective component per hectare, evaluated on day 21 after the treatment, criteria of Table 72
How it was run: (§1)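 Paddy soil was watered and puddled, seeded, then flooded to 3 cm. One day later the formulation, diluted with water, went onto the water surface at 1000 g/ha of active ingredient. After 21 days in the greenhouse, effects were scored.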

Scirpus juncoides Rocxb. = assay: as above; design: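 index 0 to 10 in 10% steps of herbicidal effect with 10 meaning complete death and 0 below 10%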; conditions: applied on water surface, 1000 g of effective component per hectare, day 21 after the treatment
How it was run: as §1

Monochoria vaginalis = assay: as above; design: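 index 0 to 10 in 10% steps of herbicidal effect with 10 meaning complete death and 0 below 10%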; conditions: 1000 g of effective component per hectare, evaluated on day 21 after the treatment, criteria of Table 72
How it was run: as §1

Indian millet [1] = assay: Herbicidal activity by field foliage treatment (Test example 3); design: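 index 0 to 10 in 10% steps of herbicidal effect with 10 meaning complete death and 0 below 10%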; conditions: 1000 g effective component per hectare, day 14 after the treatment
How it was run: (§2)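 Seeds sown in field soil and kept 2 weeks in a greenhouse; foliage of the whole plant then sprayed with diluted wettable powder (1000 L/ha, 1000 g a.i./ha); plants returned to the greenhouse and scored for herbicidal effect on day 14.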

A. retroflexus [2] = assay: as above; design: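 index 0 to 10 in 10% steps of herbicidal effect with 10 meaning complete death and 0 below 10%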; conditions: 1000 g effective component per hectare, day 14 after the treatment
How it was run: as §2

Echinochloa crus-galli [3] = assay: as above; design: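 index 0 to 10 in 10% steps of herbicidal effect with 10 meaning complete death and 0 below 10%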; conditions: 1000 g effective component per hectare, day 14 after the treatment
How it was run: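 Herbicidal effect was rated on day 14 following a foliar spray of 1000 g active ingredient per hectare, applied as water-diluted wettable powder at 1000 L/ha. Plants had been raised for 2 weeks in field soil under greenhouse conditions before spraying.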

foxtail = assay: Herbicidal activity by field soil treatment (Test example 2); conditions: 1000 g effective component per hectare, day 21 after the treatment;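 note: index 0 to 10 in 10% steps of herbicidal effect with 10 meaning complete death and 0 below 10%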
Method: [table] Test for Determining Herbicidal Activity by Field Soil Treatment A 80 cm^2 wide plastic pot was filled with a field soil and seeds of each of Echinochloa crus-galli, foxtail, Indian millet, and A. retroflexus were sowed and then covered with soil. The wettable powder produced with reference to the Formulation example 1 was diluted water, and applied on the soil surface by using a small sprayer in an amount of 1000 liters per hectare so that the effective component is 1000 g per hectare. After that, the plants were cultivated in a greenhouse, and on day 21 after the treatment, evaluation was made by the criteria described in Table 72 for determining the herbicidal effects.

Indian millet [4] = assay: as above; design: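 index 0 to 10 in 10% steps of herbicidal effect with 10 meaning complete death and 0 below 10%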; conditions: 1000 g effective component per hectare, day 21 after the treatment
How it was run: (§3)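 Field soil filled 80 cm^2 pots; seeds were sown, covered, and the soil surface treated with a small sprayer. Dose: 1000 g/ha of active component from a water-diluted wettable powder, applied in 1000 L/ha. Greenhouse cultivation followed, with evaluation at day 21.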

A. retroflexus [5] = assay: as above; design: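 index 0 to 10 in 10% steps of herbicidal effect with 10 meaning complete death and 0 below 10%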; conditions: 1000 g effective component per hectare, day 21 after the treatment
How it was run: as §3

Echinochloa crus-galli [6] = assay: as above; design: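 index 0 to 10 in 10% steps of herbicidal effect with 10 meaning complete death and 0 below 10%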; conditions: 1000 g effective component per hectare, day 21 after the treatment
How it was run: as §3

Setaria viridis = assay: Herbicidal activity by field foliage treatment (Test example 3); conditions: 1000 g effective component per hectare, day 14 after the treatment;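 note: index 0 to 10 in 10% steps of herbicidal effect with 10 meaning complete death and 0 below 10%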
Method: Test example 3 Test for Determining Herbicidal Activity by Field Foliage Treatment A 80 cm^2 wide plastic pot was filled with a field soil and seeds of each of Indian millet and A. retroflexus were sowed and then incubated for 2 weeks in a green house. The wettable powder produced with reference to the Formulation example 1 was diluted water, and applied from the air to entire body of the plant as foliage treatment by using a small sprayer in an amount of 1000 liters per hectare so that the effective component is 1000 g per hectare. After that, the plants were cultivated in a greenhouse, and on day 14 after the treatment, evaluation was made by the criteria described in Table 72 for determining the herbicidal effects.

| Compound | Herbicidal effects index number, Echinochloa oryzicola (Echinochloa oryzicola) | herbicidal effect index, S. juncoides Rocxb. (Scirpus juncoides Rocxb.) | Herbicidal effects index number, Monochoria vaginalis (Monochoria vaginalis) | herbicidal effect index, Abutilon theophrasti (Indian millet [1]) | herbicidal effect index, Amaranthus retroflexus (A. retroflexus [2]) | herbicidal effect index, Echinochloa crus-galli (Echinochloa crus-galli [3]) | herbicidal effect index, Setaria viridis (foxtail) | herbicidal effect index, Abutilon theophrasti (Indian millet [4]) | herbicidal effect index, Amaranthus retroflexus (A. retroflexus [5]) | herbicidal effect index, Echinochloa crus-galli (Echinochloa crus-galli [6]) | herbicidal effect index, Setaria viridis (Setaria viridis) |
| --- | --- | --- | --- | --- | --- | --- | --- | --- | --- | --- | --- |
| COc1ccc(-n2c(=O)c(C(=O)C3=C(O)CCCC3=O)nn(C)c2=O)cc1F [I-99] | 10 | 10 | 10 | 10 | 10 | 9 | 6 | 9 | 10 | 8 |  |
| COc1cccc(OC)c1-n1c(=O)c(C(=O)C2=C(O)CCCC2=O)nn(C)c1=O [Compound I-98] |  |  |  | 9 | 8 | 7 | 7 | 7 |  | 7 |  |
| Cc1cc(I)ccc1-n1c(=O)c(C(=O)C2=C(O)CCCC2=O)nn(C)c1=O [I-283] | 10 | 10 | 10 | 8 | 8 | 8 | 8 | 9 | 10 | 9 |  |
| Cn1nc(C(=O)C2=C(O)CCCC2=O)c(=O)n(-c2ccc(F)cc2F)c1=O [I-78] | 10 | 10 | 10 | 10 | 10 | 10 |  | 10 | 10 | 10 | 10 |
| Cn1nc(C(=O)C2=C(O)CCCC2=O)c(=O)n(-c2cccc(-c3ccccc3)c2)c1=O [I-270] | 8 | 8 | 8 | 9 | 10 | 9 | 7 |  | 10 | 8 |  |
| COc1ccccc1-n1c(=O)c(C(=O)C2=C(O)CCCC2=O)nn(C)c1=O [I-60] | 10 | 10 | 10 | 10 | 10 | 10 |  | 10 | 10 | 10 | 9 |
| CSc1c(Cl)cc(-n2c(=O)c(C(=O)O)nn(C)c2=O)cc1Cl [V-300] | 10 | 10 | 10 | 9 | 10 | 8 |  | 9 | 10 | 7 | 8 |
| Cc1ccc(-n2c(=O)c(C(=O)C3=C(O)CCCC3=O)nn(C)c2=O)c(C)c1 [I-90] | 9 | 10 | 10 | 9 | 10 | 8 |  | 10 | 10 | 8 | 7 |
| CC(C)N(c1ccccc1)n1c(=O)c(C(=O)O)nn(C)c1=O [V-369] | 10 | 10 | 10 | 8 | 9 | 9 |  | 7 | 7 | 7 | 7 |
| CC(Cn1c(=O)c(C(=O)C2=C(O)CCCC2=O)nn(C)c1=O)=NOC(C)C [I-479] | 10 | 10 | 10 | 9 | 10 | 9 |  | 10 | 10 | 9 | 7 |
| CC(C)N(c1ccccc1)n1c(=O)c(C(=O)C2=C(O)CCCC2=O)nn(C)c1=O [I-475] | 10 | 10 | 10 | 8 | 9 | 9 |  | 7 | 7 | 7 | 7 |
| Cn1c(=O)c(C(=O)C2=C(O)CCCC2=O)nn(-c2ccccn2)c1=O [I-274] | 8 | 4 | 8 | 8 | 9 | 9 |  | 8 | 7 | 7 | 8 |
| Cn1nc(C(=O)C2=C(O)CCCC2=O)c(=O)n(-c2ccc(F)cn2)c1=O [I-184] | 10 | 10 | 10 | 9 | 10 | 10 |  | 10 | 10 | 8 | 8 |
| CCn1c(=O)c(C(=O)C2=C(O)CCCC2=O)nn(-c2ccccn2)c1=O [I-275] | 9 | 8 | 10 | 9 | 9 | 9 |  | 10 | 10 | 8 | 8 |
